In PubChem BioAssay AID330 (DTP/NCI, 2004):
“And” between values parts separate entries of the source, which are not always exact repeats. Equal entries are not always repeated. Toxic doses and inconclusive results are not listed. How the source made its calls: active means survival T/C of 150% or more; inactive means T/C below 125% in these data.

Tested on: P388 leukemia ip, CD2F1 mice, survival T/C
Test: NCI In Vivo Anticancer Drug Screen. Data for tumor model P388 Leukemia (intraperitoneal) in CD2F1 (CDF1) mice
Conditions: endpoint: median survival time, higher = longer survival
In short: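 Mice carrying the transplanted tumor received test compound or vehicle. Survival was recorded in each group, and the value is the treated-group measurement divided by that of the vehicle-treated control group.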

[1] = dose: 50.0 mg/kg/injection, schedule: Q01DX005 (ip), vehicle: Klucel (hydroxypropylcellulose) (HPC)
[2] = dose: 100.0 mg/kg/injection, schedule: Q01DX005 (ip), vehicle: Klucel (hydroxypropylcellulose) (HPC)
[3] = dose: 200.0 mg/kg/injection, schedule: Q01DX005 (ip), vehicle: Klucel (hydroxypropylcellulose) (HPC)
[4] = dose: 50.0 mg/kg/injection, schedule: Q01DX005 (ip), vehicle: saline
[5] = dose: 60.0 mg/kg/injection, schedule: Q01DX005 (ip), vehicle: Klucel (hydroxypropylcellulose) (HPC)
[6] = dose: 100.0 mg/kg/injection, schedule: Q01DX005 (ip), vehicle: saline
[7] = dose: 120.0 mg/kg/injection, schedule: Q01DX005 (ip), vehicle: Klucel (hydroxypropylcellulose) (HPC)
[8] = dose: 50.0 mg/kg/injection, schedule: Q01DX005 (ip), vehicle: saline with Tween-80
[9] = dose: 100.0 mg/kg/injection, schedule: Q01DX005 (ip), vehicle: saline with Tween-80
[10] = dose: 200.0 mg/kg/injection, schedule: Q01DX005 (ip), vehicle: saline with Tween-80
[11] = dose: 60.0 mg/kg/injection, schedule: Q01DX005 (ip), vehicle: saline
[12] = dose: 120.0 mg/kg/injection, schedule: Q01DX005 (ip), vehicle: saline
[13] = dose: 240.0 mg/kg/injection, schedule: Q01DX005 (ip), vehicle: saline

Measured: T/C

O=[N+]([O-])c1ccc(SN2CCCCC2CC2CCCCC2)c([N+](=O)[O-])c1 (centres undefined)
inactive: [1] 105 % of control | [2] 98 % of control | [3] 96 % of control

CC1=CC(=C2C(=O)c3ccccc3C2=O)C=C(C)N1CCN1CCCCC1
inactive: [4] 98 % of control | [5] 90 % of control | [6] 99 % of control | [7] 95 % of control

Oc1ccc2c3c1OC1C(=NN=C4CCC5(O)C6Cc7ccc(O)c8c7C5(CCN6CC5CC5)C4O8)CCC4(O)C(C2)N(CC2CC2)CCC314 (centres undefined)
inactive: [8] 91 % of control | [9] 98 % of control | [10] 99 % of control

O=C1OCCOCCOCCOCCOCCOC(=O)c2cccc1n2
inactive: dose: 100.0 mg/kg/injection, schedule: Q04DX003 (ip), vehicle: Klucel (hydroxypropylcellulose) (HPC) 96 % of control | dose: 200.0 mg/kg/injection, schedule: Q04DX003 (ip), vehicle: Klucel (hydroxypropylcellulose) (HPC) 103 % of control | dose: 400.0 mg/kg/injection, schedule: Q04DX003 (ip), vehicle: Klucel (hydroxypropylcellulose) (HPC) 101 % of control

Cc1c(CN2CCOC(c3ccccc3)C2C)c(=O)n(-c2ccccc2)n1C (centres undefined)
inactive: dose: 50.0 mg/kg/injection, schedule: Q01DX009 (ip), vehicle: Klucel (hydroxypropylcellulose) (HPC) 93 % of control | dose: 100.0 mg/kg/injection, schedule: Q01DX009 (ip), vehicle: Klucel (hydroxypropylcellulose) (HPC) 103 % of control

COc1ccc(C(O)Cc2cc(OC)c(OC)c(OC)c2)cc1O (centres undefined)
inactive: dose: 31.25 mg/kg/injection, schedule: Q01DX009 (ip), vehicle: saline + Tween-80 + alcohol 105 % of control | dose: 62.5 mg/kg/injection, schedule: Q01DX009 (ip), vehicle: saline + Tween-80 + alcohol 98 % of control | dose: 125.0 mg/kg/injection, schedule: Q01DX009 (ip), vehicle: saline + Tween-80 + alcohol 89 % of control | dose: 250.0 mg/kg/injection, schedule: Q01DX009 (ip), vehicle: saline + Tween-80 + alcohol 91 % of control

NCCNCCN1C(=O)c2cccc3cccc(c23)C1=O
inactive: dose: 100.0 mg/kg/injection, schedule: Q01DX001 (ip), vehicle: saline 110 % of control | dose: 200.0 mg/kg/injection, schedule: Q01DX001 (ip), vehicle: saline 86 % of control

CC(=O)/C=C(\C)NCCN/C(C)=C/C(C)=O
inactive: [11] 101 % of control | [12] 98 % of control | [13] 98 % of control

O=C1C=CC(=O)c2c(O)cccc21
inactive: dose: 0.39 mg/kg/injection, schedule: Q01DX009 (ip), vehicle: saline with Tween-80 93 % of control | dose: 0.75 mg/kg/injection, schedule: Q01DX009 (ip), vehicle: saline with Tween-80 95 % of control | dose: 0.78 mg/kg/injection, schedule: Q01DX009 (ip), vehicle: saline with Tween-80 93 % of control | dose: 1.5 mg/kg/injection, schedule: Q01DX009 (ip), vehicle: saline with Tween-80 90 % of control | dose: 1.56 mg/kg/injection, schedule: Q01DX009 (ip), vehicle: saline with Tween-80 102 % of control | dose: 3.13 mg/kg/injection, schedule: Q01DX009 (ip), vehicle: saline with Tween-80 90 % of control

CN(CCO)CNC(=O)C1=C(O)C2(O)C(=O)C3=C(O)c4c(O)cccc4C(C)(O)C3CC2C(N(C)C)C1=O (centres undefined)
inactive: [1] 105 % of control | [2] 103 % of control | [3] 100 % of control

COc1cc2c(cc1OC)C13CC(=O)N(C(C)=O)N1CCCN3C2=O (centres undefined)
inactive: dose: 30.0 mg/kg/injection, schedule: Q01DX005 (ip), vehicle: Klucel (hydroxypropylcellulose) (HPC) 106 % of control | [5] 97 % of control | [7] 91 % of control and 97 % of control | dose: 240.0 mg/kg/injection, schedule: Q01DX005 (ip), vehicle: Klucel (hydroxypropylcellulose) (HPC) 88 % of control

COc1ccc2c(c1)C(CCN(C)C)(CCN(C)C)C(=O)CC2
inactive: dose: 12.5 mg/kg/injection, schedule: Q01DX005 (ip), vehicle: saline 94 % of control | dose: 25.0 mg/kg/injection, schedule: Q01DX005 (ip), vehicle: saline 95 % of control | [4] 104 % of control and 94 % of control

Cc1c(-c2ccccc2)[nH]c2cc3c(cc12)Oc1ccccc1O3
inactive: dose: 17.5 mg/kg/injection, schedule: Q01DX009 (ip), vehicle: Klucel (hydroxypropylcellulose) (HPC) 101 % of control | dose: 35.0 mg/kg/injection, schedule: Q01DX009 (ip), vehicle: Klucel (hydroxypropylcellulose) (HPC) 106 % of control | dose: 70.0 mg/kg/injection, schedule: Q01DX009 (ip), vehicle: Klucel (hydroxypropylcellulose) (HPC) 105 % of control

C=CC1O[C@H](C)C[C@H](C)O1 (some centres undefined)
inactive: [11] 109 % of control | [12] 100 % of control | [13] 104 % of control

OCC12OCC(C=CC1O)O2 (centres undefined)
inactive: [11] 99 % of control | [12] 91 % of control | [13] 98 % of control

Cc1ccc(S(=O)(=O)OCCOc2ccc(-c3nc4ccccc4[nH]3)cc2)cc1
inactive: dose: 100.0 mg/kg/injection, schedule: Q01DX001 (ip), vehicle: saline with Tween-80 92 % of control | dose: 200.0 mg/kg/injection, schedule: Q01DX001 (ip), vehicle: saline with Tween-80 90 % of control | dose: 400.0 mg/kg/injection, schedule: Q01DX001 (ip), vehicle: saline with Tween-80 101 % of control

CC(=O)NC(CSC1(c2ccccc2)c2ccccc2-c2ccccc21)C(=O)O (centres undefined)
inactive: [5] 93 % of control | [7] 89 % of control

CN(C)C1=NC1(C)C
inactive: dose: 50.0 mg/kg/injection, schedule: Q01DX009 (ip), vehicle: saline 100 % of control | dose: 100.0 mg/kg/injection, schedule: Q01DX009 (ip), vehicle: saline 102 % of control | dose: 200.0 mg/kg/injection, schedule: Q01DX009 (ip), vehicle: saline 91 % of control

CCOC(=O)C1=C(C)N[C@H](c2ccccc2[N+](=O)[O-])N[C@H]1c1ccccc1[N+](=O)[O-]
inactive: dose: 12.5 mg/kg/injection, schedule: Q01DX005 (ip), vehicle: Klucel (hydroxypropylcellulose) (HPC) 105 % of control | dose: 25.0 mg/kg/injection, schedule: Q01DX005 (ip), vehicle: Klucel (hydroxypropylcellulose) (HPC) 94 % of control | [1] 88 % of control and 92 % of control

Nc1ccccc1N=Cc1c(O)c2ccccc2oc1=O
inactive: [8] 93 % of control | [9] 98 % of control

O=C(O)C(Cc1ccccc1)NSc1ccccc1[N+](=O)[O-] (centres undefined)
inactive: dose: 25.0 mg/kg/injection, schedule: Q01DX009 (ip), vehicle: distilled water + Tween-80 98 % of control and 100 % of control | dose: 50.0 mg/kg/injection, schedule: Q01DX009 (ip), vehicle: distilled water + Tween-80 107 % of control | dose: 100.0 mg/kg/injection, schedule: Q01DX009 (ip), vehicle: distilled water + Tween-80 100 % of control and 116 % of control | dose: 200.0 mg/kg/injection, schedule: Q01DX009 (ip), vehicle: distilled water + Tween-80 109 % of control

O=[N+]([O-])OC1CCCC(O[N+](=O)[O-])c2c1n([O-])c1ccccc1[n+]2=O (centres undefined)
inactive: [8] 95 % of control | [9] 89 % of control | [10] 92 % of control

Cc1n[nH]c(=S)n1C
inactive: dose: 43.75 mg/kg/injection, schedule: Q04DX003 (ip), vehicle: saline sonified 95 % of control | dose: 87.5 mg/kg/injection, schedule: Q04DX003 (ip), vehicle: saline sonified 100 % of control | dose: 175.0 mg/kg/injection, schedule: Q04DX003 (ip), vehicle: saline sonified 90 % of control

c1ccc2c(c1)SCC1COCOC21 (centres undefined)
inactive: dose: 100.0 mg/kg/injection, schedule: Q04DX003 (ip), vehicle: saline with Tween-80 100 % of control | dose: 200.0 mg/kg/injection, schedule: Q04DX003 (ip), vehicle: saline with Tween-80 103 % of control | dose: 400.0 mg/kg/injection, schedule: Q04DX003 (ip), vehicle: saline with Tween-80 98 % of control

COC(=O)CC(O)CCCCCCCCCCCCC(C)C (centres undefined)
inactive: dose: 8.75 mg/kg/injection, schedule: Q01DX005 (ip), vehicle: Klucel + Tween-80 92 % of control | dose: 17.5 mg/kg/injection, schedule: Q01DX005 (ip), vehicle: Klucel + Tween-80 100 % of control | dose: 35.0 mg/kg/injection, schedule: Q01DX005 (ip), vehicle: Klucel + Tween-80 97 % of control

CN(C)CCCN1CC2CC=CCC2C1 (centres undefined)
inactive: [4] 99 % of control | [6] 99 % of control | dose: 200.0 mg/kg/injection, schedule: Q01DX005 (ip), vehicle: saline 100 % of control

COc1nc(N)c2cnn(C3CCCCO3)c2n1 (centres undefined)
inactive: dose: 100.0 mg/kg/injection, schedule: Q04DX002 (ip), vehicle: saline with Tween-80 99 % of control | dose: 200.0 mg/kg/injection, schedule: Q04DX002 (ip), vehicle: saline with Tween-80 96 % of control | dose: 400.0 mg/kg/injection, schedule: Q04DX002 (ip), vehicle: saline with Tween-80 101 % of control
